Measured values taken from patent US9174973B2, “Crystalline forms of azilsartan and preparation and uses thereof” (SUNSHINE LAKE PHARMA CO., LTD., priority 2011, dated 2015).

Experiment: solubility test of crystalline forms in 0.1M HCl (Chinese Pharmacopoeia 2010)
Assay type: physicochemical
Settings: 300 mg sample in 6 mL 0.1M HCl, 25° C.±2° C., 30 minutes, observed with eyes
Description: The solubility of crystalline forms A, B, C and D was measured in accordance with the solubility test described in “Chinese Pharmacopoeia 2010”, Topic and Requirement 15. A crystalline form of azilsartan was grinded into powder. The powder (300 mg) was added to 6 ml of 0.1M HCl as the solvent at 25° C.±2° C. […] The total test time was 30 minutes. The solid was deemed as dissolved when no solid was detected in the mixture by human eyes. The solubility data of crystalline forms A, B, C and D of azilsartan are as shown below.

Compound: CCOc1nc2cccc(C(=O)O)c2n1Cc1ccc(-c2ccccc2-c2noc(=O)[nH]2)cc1 [Form D]
- Result (solubility): dissolved
